Measured values from patent US8138196B2, “Antifungal wallboards and building materials and methods for the production thereof” (Syngenta Crop Protection, Inc., priority 2005, dated 2012).
Values joined by “and” are separate entries in the source; they are usually repeats but may differ in a detail not shown here. Equal entries are not always repeated.

Experiments:
Format in all cases: cell-based
[1] = system: Alternaria tenuissima (DSM 63360); experiment: Example 3 liquid culture assay on 24 well plates, solo and 2-way mixtures
Description: (§1) Alternaria tenuissima (DSM 63360), Penicillium chrysogenum (DSM 895), Stachybotrys chartarum (DSM2144), Aspergillus niger (DSM 63263), Aspergillus versicolor (DSM 1943) and Aureobasidium pullulans (ATCC 15233) were separately cultivated on PDA media to […] sporulation. Spore suspensions were produced for each fungi. Spore concentrations of approx. 100.000 spores/ml were used.
(§2) Test method used: liquid culture assay on 24 well plates.
(§3) For solo (i.e. single) ai testing the formulated fungicide (100 ul) was filled into the 24 well plates and 100 ul distilled water was added. Afterwards 800 ul of 0.3% AE media was added to the plate. The spore suspension of the specific fungi was added to this media in advance containing approx. 100,000 spores/ml. The 24 well plates were sealed and incubated at 24° C.
(§4) Dependent on the growth properties of each organisms, the evaluation was done after 3 to 6 days, when the surface of the check well was covered with mycelium. The evaluation was performed by assessing the growth of the fungi related to the check growth. The results are expressed as % activity relative to the check (values of 0-100% growth). Afterwards the results were converted in % O growth inhibition.
(§5) For synergism testing of the 2-way mixtures 100 ul of each fungicide were filled into 24 well plates and 800 ul of 0.3% AE media containing the spore suspension was added. Different ratios of the 2 fungicide rates were tested at the same time.
(§6) For the mixtures of different fungicides the synergism was calculated based on the Colby equation, which is described below: […]
(§7) The fungicidal action to be expected, We, for a given combination of two fungicides can be calculated as follows (see COLBY, S. R. “Calculating synergistic and antagonistic response of herbicide combinations”. Weeds 15, pages 20-22; 1967): We=X+[Y×(100−X)/100] wherein: • X=% activity in the case of treatment with the compound of formula I at rate x, in comparison with untreated control (=0%). • Y=% activity in the case of treatment with a compound of formula II at rate y, in comparison with untreated control. • We=expected activity (% activity in comparison with untreated control) after treatment with the compound of formula I and a compound of formula II at a rate of x+y kg of active ingredient.
(§8) If the activity actually observed is greater than the expected value We (factor observed activity/expected activity >1.2), there is a synergistic effect.

[2] = system: Aspergillus niger (DSM 63263); experiment: as above; details: test 006-2005
Description: as §1, §2, §3, §4, §5, §6, §7, §8

[3] = system: Aspergillus versicolor (DSM 1943); experiment: as above; details: test 006-2005; rate (FDL) 0.05 mg ai/l
Description: as §1, §2, §3, §4, §5, §6, §7, §8

[4] = system: Penicillium chrysogenum (DSM 895); experiment: as above; details: test 006-2005
Description: as §1, §2, §3, §4, §5, §6, §7, §8

[5] = system: Alternaria tenuissima (DSM 63360); experiment: Example 4 liquid culture assay on 24 and 48 well plates, 3 way mixtures; details: A. tenuissima
Description: as §1, with “For test 006-2005: Alternaria” for “Alternaria”, “Cladosporium cladosporoides (DSM62121),” for “Stachybotrys chartarum (DSM2144),”, “fungus.” for “fungi.”, “100,000” for “100.000”
(§9) […] Spore suspensions were produced for each fungus. Spore concentrations of approx. 100,000 spores/ml were used.
(§10) Test method used: liquid culture assay on 24 and 48 well plates respectively.
(§11) For testing of the 3 way mixtures each of the formulated fungicide (100 ul) was filled into the 24 and 48 well plates respectively. Afterwards 700 ul of 0.3% AE media was added to the plate. The spore suspension of the specific fungi was added to this media in advance containing approx. 100,000 spores/ml. For testing the solo compounds the equivalent of distilled water was added instead of the formulated fungicide volume of the mixing partners. The plates were then sealed and incubated at 24° C.
as §4, with “%” for “% O”
(§12) For the mixtures of different fungicides the synergism was calculated based on the Colby equation, which is described above.

[6] = system: Aspergillus niger (DSM 63263); experiment: as above; details: A. niger
Description: as §1, with “For test 006-2005: Alternaria” for “Alternaria”, “Cladosporium cladosporoides (DSM62121),” for “Stachybotrys chartarum (DSM2144),”, “fungus.” for “fungi.”, “100,000” for “100.000”
For test 015-2006: Alternaria tenuissima (DSM 63360), Penicillium pinophilum (CBS342.61), Gliocladium virens (DSM1963), Aspergillus niger (DSM 63263), Stachybotrys chartarum (DSM 2144) and Aureobasidium pullulans (ATCC 15233) were separately cultivated on PDA media to […] sporulation. Spore suspensions were produced for each fungus. Spore concentrations of approx. 100,000 spores/ml were used.
as §10, §11
as §4, with “%” for “% O”
as §12

[7] = system: Aspergillus versicolor (DSM 1943); experiment: as above; details: test 006-2005, A. versicolor
Description: as §1, with “For test 006-2005: Alternaria” for “Alternaria”, “Cladosporium cladosporoides (DSM62121),” for “Stachybotrys chartarum (DSM2144),”, “fungus.” for “fungi.”, “100,000” for “100.000”
as §10, §11
as §4, with “%” for “% O”
as §12

[8] = system: Stachybotrys chartarum (DSM 2144); experiment: as above; details: test 015-2005, S. chartarum
Protocol: as §9, §10, §11
as §4, with “%” for “% O”
as §12

[9] = system: Coniophora puteana; experiment: radial mycelial growth on fungicide amended agar; details: estimated from graph of % activity (radial mycelial growth relative to agar without fungicide) against concentration
Protocol: Stem cultures of Coniophora puteana were produced by propagating the fungus on a growth medium comprising yeast extract (10 g), glycerol (20 ml), magnesium sulphate (0.5 g), sodium nitrate (6.0 g), potassium chloride (0.5 g), potassium dihydrogen orthophosphate (1.5 g), agar (20 g) in distilled water (980 ml).
Fungicides were added at levels of 5000, 100, 10, 1, 0.1 and 0.01 mg fungicide/litre of growth medium (described above) to give […] different growth medium compositions for each fungicide. Mycelial plugs were taken from the stem cultures and transferred upside down onto petri dishes containing the fungicide amended agar.
The radial mycelial growth of the fungus was measured individually on all test petri dishes. The results are expressed as % activity relative to the radial growth on agar without fungicide.
For each fungicide, a graph was drawn of percentage activity against concentration of fungicide in the growth medium. From this graph, the concentrations of fungicide required to achieve 80% activity was estimated. These figures are given in the results table.

[10] = system: Aureobasidium pullulans (ATCC 15233); experiment: Example 3 liquid culture assay on 24 well plates, solo and 2-way mixtures
Description: as §1, §2, §3, §4, §5, §6, §7, §8

[11] = system: Stachybotrys chartarum (DSM2144); experiment: as above; details: test 006-2005
Description: as §1, §2, §3, §4, §5, §6, §7, §8

N#Cc1c[nH]cc1-c1cccc2c1OC(F)(F)O2 [Fludioxonil]
70%: inh % (FDL alone) ([1]; test 006-2005, rate (FDL) 0.2 mg ai/l) | inh % (FDL alone) ([1]; test 015-2005, rate (FDL) 12.5 mg ai/l) | inh % (FDL alone) ([1]; test 015-2005, rate (FDL) 25 mg ai/l) | inh % (FDL alone) ([1]; test 015-2005, rate (FDL) 50 mg ai/l) | inh % (FDL alone) ([1]; test 015-2005, rate (FDL) 100 mg ai/l) | inh % (FDL alone) ([2]; rate (FDL) 0.8 mg ai/l) | inh % (FDL alone) ([2]; rate (FDL) 1.6 mg ai/l) | inh % (FDL alone) ([2]; rate (FDL) 3.12 mg ai/l) | inh % (FDL alone) ([2]; rate (FDL) 12.5 mg ai/l) | inh % (FDL alone) ([5]; test 006-2005, FDL 0.8 mg ai/l) | inh % (FDL alone) ([5]; test 006-2005, FDL 1.6 mg ai/l)
0%: inh % (FDL alone) ([4]; rate (FDL) 0.05 mg ai/l) | inh % (FDL alone) ([7]; FDL 0.2 mg ai/l) | inh % (FDL alone) ([7]; FDL 0.8 mg ai/l) | inh % (FDL alone) ([7]; FDL 1.6 mg ai/l)
50%: inh % (FDL alone) ([1]; test 015-2005, rate (FDL) 1.6 mg ai/l) | inh % (FDL alone) ([1]; test 015-2005, rate (FDL) 3.1 mg ai/l) | inh % (FDL alone) ([1]; test 015-2005, rate (FDL) 6.25 mg ai/l) | inh % (FDL alone) ([1]; test 015-2005, rate (FDL) 200 mg ai/l) | inh % (FDL alone) ([2]; rate (FDL) 0.2 mg ai/l) | inh % (FDL alone) ([4]; rate (FDL) 0.2 mg ai/l) | inh % (FDL alone) ([5]; test 006-2005, FDL 0.2 mg ai/l) | inh % (FDL alone) ([5]; test 015-2005, FDL 0.8 mg ai/l) | inh % (FDL alone) ([5]; test 015-2005, FDL 1.6 mg ai/l) | inh % (FDL alone) ([6]; test 006-2005, FDL 0.8 mg ai/l) | inh % (FDL alone) ([6]; test 015-2005, FDL 0.8 mg ai/l) | inh % (FDL alone) ([6]; test 015-2005, FDL 1.6 mg ai/l) | inh % (FDL alone) ([6]; test 015-2005, FDL 3.1 mg ai/l) | inh % (FDL alone) ([8]; FDL 0.2 mg ai/l)
30%: inh % (FDL alone) ([1]; test 015-2005, rate (FDL) 0.2 mg ai/l) | inh % (FDL alone) ([1]; test 015-2005, rate (FDL) 0.4 mg ai/l) | inh % (FDL alone) ([1]; test 015-2005, rate (FDL) 0.8 mg ai/l)
10%: inh % (FDL alone) [3] | inh % (FDL alone) ([8]; FDL 0.05 mg ai/l)

c1ccc2[nH]c(-c3cscn3)nc2c1 [Thiabendazole]
10%: inh % (TBZ alone) ([7]; TBZ 1.6 mg ai/l) | inh % (TBZ alone) ([8]; TBZ 6.25 mg ai/l)
30%: inh % (TBZ alone) ([8]; TBZ 25 mg ai/l)
0% and 10%: inh % (TBZ alone) ([8]; TBZ 3.1 mg ai/l, listed as TBZ)
0%: inh % (TBZ alone) ([1]; test 015-2005, rate (TBZ) 12.5 mg ai/l) | inh % (TBZ alone) ([1]; test 015-2005, rate (TBZ) 25 mg ai/l) | inh % (TBZ alone) ([1]; test 015-2005, rate (TBZ) 50 mg ai/l) | inh % (TBZ alone) ([1]; test 015-2005, rate (TBZ) 100 mg ai/l) | inh % (TBZ alone) ([1]; test 015-2005, rate (TBZ) 200 mg ai/l) | inh % (TBZ alone) ([5]; test 006-2005, TBZ 0.2 mg ai/l) | inh % (TBZ alone) ([5]; test 006-2005, TBZ 0.8 mg ai/l) | inh % (TBZ alone) ([5]; test 006-2005, TBZ 1.6 mg ai/l) | inh % (TBZ alone) ([5]; test 015-2005, TBZ 0.2 mg ai/l) | inh % (TBZ alone) ([5]; test 015-2005, TBZ 1.6 mg ai/l) | inh % (TBZ alone) ([5]; test 015-2005, TBZ 3.1 mg ai/l) | inh % (TBZ alone) ([5]; test 015-2005, TBZ 6.25 mg ai/l) | inh % (TBZ alone) ([5]; test 015-2005, TBZ 25 mg ai/l) | inh % (TBZ alone) ([5]; test 015-2005, TBZ 100 mg ai/l) | inh % (TBZ alone) ([6]; test 006-2005, TBZ 0.8 mg ai/l) | inh % (TBZ alone) ([6]; test 015-2005, TBZ 0.2 mg ai/l) | inh % (TBZ alone) ([6]; test 015-2005, TBZ 0.8 mg ai/l) | inh % (TBZ alone) ([7]; TBZ 0.2 mg ai/l) | inh % (TBZ alone) ([7]; TBZ 0.8 mg ai/l)
>5000 mg/L: Concentration required for 80% Activity [9]

CC1COC(Cn2cncn2)(c2ccc(Oc3ccc(Cl)cc3)cc2Cl)O1 (centres unmarked) [Difenoconazole]
70%: inh % (DFZ alone) ([10]; test 006-2005, rate (DFZ) 3.12 mg ai/l)

CCCC1COC(Cn2cncn2)(c2ccc(Cl)cc2Cl)O1 (centres unmarked) [Propiconazole]
1.8 mg/L: Concentration required for 80% Activity [9]
70%: inh % (PPZ alone) ([10]; test 006-2005, rate (PPZ) 1.6 mg ai/l) | inh % (PPZ alone) ([10]; test 006-2005, rate (PPZ) 3.12 mg ai/l) | inh % (PPZ alone) ([10]; test 006-2005, rate (PPZ) 12.5 mg ai/l) | inh % (PPZ alone) ([10]; test 015-2005, rate (PPZ) 50 mg ai/l)
50%: inh % (PPZ alone) ([10]; test 015-2005, rate (PPZ) 25 mg ai/l)
0%: inh % (PPZ alone) ([11]; rate (PPZ) 0.8 mg ai/l)
10%: inh % (PPZ alone) ([11]; rate (PPZ) 1.6 mg ai/l) | inh % (PPZ alone) ([11]; rate (PPZ) 3.12 mg ai/l)
